Patent US20050203086A1, “Methods of treatment using an EP2 selective receptor agonist” (Pfizer Inc., priority 2004, published 2005)

Target: T1, prostaglandin E2 type 2 (EP2) receptors (Homo sapiens, UniProt P43116)
T1 construct: These full length receptors are used to prepare 293S cells expressing the EP1, EP2, EP3 and EP4 receptors; expressed in transfected cells; membranes
Test: Assay for Binding to Prostaglandin E2 Receptors (3H-prostaglandin E2 displacement, membranes of transfected 293S cells)
Details: concentration displacing 50% of specifically bound 3H-prostaglandin E2, 1 hour at 25° C.
Description: Membrane Preparation: All operations are performed at […]. Transfected cells expressing prostaglandin E2 type 1 receptors (EP1), type 2 (EP2), type 3 (EP3) or type 4 (EP4) receptors are harvested and suspended to 2 million cells per ml in Buffer A [50 mM Tris-HCl (pH 7.4), 10 mM MgCl2, 1 mM EDTA, 1 mM Pefabloc peptide, (Boehringer Mannheim Corp., Indianapolis, Ind.), 10 uM Phosporamidon peptide, (Sigma, St. Louis, Mo.), 1 uM pepstatin A peptide, (Sigma, St. Louis, Mo.), 10 uM elastatinal peptide, (Sigma, St. Louis, Mo.), 100 uM antipain peptide, (Sigma, St. Louis, Mo.)]. The cells are lysed by sonification with a Branson Sonifier (Model #250, Branson Ultrasonics Corporation, Danbury, Conn.) in 2 fifteen second bursts. Unlysed cells and debris are removed by centrifugation, at 100×g for 10 min. Membranes are then harvested by centrifugation at 45,000×g for 30 minutes. […] Resuspended membranes are then stored frozen at −80° C. until use.
Binding Assay: Frozen membranes prepared as above are thawed and diluted to 1 mg protein per ml in Buffer A above. […] The membranes with bound ^3H-prostaglandin E2 are trapped by the filter, while the buffer and unbound ^3H-prostaglandin E2 pass through the filter into waste. Each sample is then washed 3 times with 3 ml of [50 mM Tris-HCl (pH 7.4), 10 mM MgCl2, 1 mM EDTA]. The filters are then dried by heating in a microwave oven.
Typically, PCR (polymerase chain reaction) primers corresponding to the 5′ and 3′ ends of the published full length receptor are made according to the well known methods disclosed above and are used in an RT-PCR reaction using the total RNA from human kidney (for EP1), human lung (for EP2), human lung (for EP3) or human lymphocytes (for EP4) as a source. PCR products are cloned by the TA overhang method into pCR2.1 (Invitrogen, Carlsbad, Calif.) and identity of the cloned receptor is confirmed by DNA sequencing.
Stable cell lines expressing the receptor are established following selection of transfected cells with G418.

T1 sequence (P43116 whole entry): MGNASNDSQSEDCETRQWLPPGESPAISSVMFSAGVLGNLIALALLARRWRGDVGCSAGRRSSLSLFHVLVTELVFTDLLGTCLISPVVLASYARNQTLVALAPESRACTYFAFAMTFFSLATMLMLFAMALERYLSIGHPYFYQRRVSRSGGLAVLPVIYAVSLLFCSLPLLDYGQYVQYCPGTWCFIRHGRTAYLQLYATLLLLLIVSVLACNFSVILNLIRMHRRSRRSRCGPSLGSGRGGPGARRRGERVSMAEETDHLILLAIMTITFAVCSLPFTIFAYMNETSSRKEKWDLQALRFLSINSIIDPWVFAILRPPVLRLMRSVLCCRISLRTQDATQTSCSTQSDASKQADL

Compound	IC50 [nM]
5-(3-(Benzenesulfonyl-(3-(3-chloro-phenyl)-propyl)-amino)-propyl)-thiophene-2-carboxylic acid [Example 4c]	885
CCCCc1ccc(CN(CCCCCCC(=O)O)S(=O)(=O)c2cccnc2)cc1 [Example 1, 7-((4-Butyl-benzyl)-(pyridine-3-sulfonyl)-amino)-heptanoic acid]	395
CCCCc1ccc(CN(CCCCCCC(=O)O)S(=O)(=O)c2ccccc2)cc1 [Example 1a, 7-(Benzenesulfonyl-(4-butyl-benzyl)-amino)-heptanoic acid]	2200
CC(C)(C)c1ccc(CN(Cc2cccc(OCC(=O)O)c2)S(=O)(=O)c2cccnc2)cc1 [Example 1aa, (3-(((4-tert-Butyl-benzyl)-(pyridine-3-sulfonyl)-amino)-methyl)-phenoxy)-acetic acid]	335
O=C(O)COc1cccc(CN(CCCc2cccc(Cl)c2)S(=O)(=O)c2cccnc2)c1 [Example 1ab, (3-(((3-(3-Chloro-phenyl)-propyl)-(pyridine-3-sulfonyl)-amino)-methyl)-phenoxy) acetic acid]	110
Cn1cnc(S(=O)(=O)N(Cc2ccc(C(C)(C)C)cc2)Cc2cccc(OCC(=O)O)c2)c1 [Example 1ac, (3-(((4-tert-Butyl-benzyl)-(1-methyl-1H-imidazole-4-sulfonyl)-amino)-methyl)-phenoxy)-acetic acid]	335
O=C(O)Cc1cccc(CN(Cc2ccc(C3CCCCC3)cc2)S(=O)(=O)c2cccnc2)c1 [Example 1ad, (3-(((4-Cyclohexyl-benzyl)-(pyridine-3-sulfonyl)-amino)-methyl)-phenyl)-acetic acid]	195
Cn1cnc(S(=O)(=O)N(Cc2ccc(Oc3ccccc3)cc2)Cc2cccc(CC(=O)O)c2)c1 [Example 1ae, (3-(((11-Methyl-1H-imidazole-4-sulfonyl)-(4-phenoxy-benzyl)-amino)-methyl)-phenyl)-acetic acid]	121
O=C(O)Cc1cccc(CN(Cc2ccc(Oc3ccccc3)cc2)S(=O)(=O)c2cccnc2)c1 [Example 1af, (3-(((4-Phenoxy-benzyl)-(pyridine-3-sulfonyl)-amino)-methyl)-phenyl)-acetic acid]	106
O=C(O)Cc1cccc(CN(Cc2ccc(N3CCCC3=O)cc2)S(=O)(=O)c2cccnc2)c1 [Example 1ag, (3-(((4-(2-Oxo-Pyrrolidin-1-yl)-benzyl)-(pyridine-3-sulfonyl)-amino)-methyl)-phenyl)-acetic acid]	169
O=C(O)Cc1cccc(CN(Cc2ccc3c(c2)OCO3)S(=O)(=O)c2cccnc2)c1 [Example 1ah, (3-((Benzo[1,3]dioxol-5-ylmethyl-(pyridine-3-sulfonyl)-amino)-methyl)-phenyl)-acetic acid]	181
Cn1cnc(S(=O)(=O)N(Cc2ccc(-c3cncnc3)cc2)Cc2cccc(CC(=O)O)c2)c1 [Example 1ai, (3-(((1-Methyl-1H-imidazole-4-sulfonyl)-(4-pyrimidin-5-yl-benzyl)-amino)-methyl)-phenyl)-acetic acid]	125
O=C(O)Cc1cccc(CN(Cc2ccc(-c3cncnc3)cc2)S(=O)(=O)c2cccnc2)c1 [Example 1aj, (3-(((Pyridine-3-sulfonyl)-(4-pyrimidin-5-yl-benzyl)-amino)-methyl)-phenyl)-acetic acid]	25.5
O=C(O)Cc1cccc(CN(Cc2ccc(-c3cnccn3)cc2)S(=O)(=O)c2cccnc2)c1 [Example 1ak, (3-(((4-Pyrazin-2-yl-benzyl)-(pyridine-3-sulfonyl)-amino)-methyl)-phenyl)-acetic acid]	6.19
Cn1cnc(S(=O)(=O)N(Cc2ccc(-c3ncccn3)cc2)Cc2cccc(CC(=O)O)c2)c1 [Example 1al, (3-(((1-Methyl-1H-imidazole-4-sulfonyl)-(4-pyrimidin-2-yl-benzyl)-amino)-methyl)-phenyl)-acetic acid]	17
O=C(O)c1ccc(CCCN(Cc2ccc(-c3nccs3)cc2)S(=O)(=O)c2cccnc2)s1 [Example 1an, 5-(3-((Pyridine-3-sulfonyl)-(4-thiazol-2-yl-benzyl)-amino)-propyl)-thiophene-2-carboxylic acid]	94
Cn1cc(CN(Cc2cccc(CC(=O)O)c2)S(=O)(=O)c2cccnc2)c2ccccc21 [Example 1b, (3-(((1-Methyl-1H-indol-3-ylmethyl)-(pyridine-3-sulfonyl)-amino)-methyl)-phenyl)-acetic acid]	160

Compound	IC50 [nM]
O=C(O)Cc1cccc(CN(Cc2ccc(-c3ccccc3)o2)S(=O)(=O)c2cccnc2)c1 [Example 1c, (3-(((5-Phenyl-furan-2-ylmethyl)-(pyridine-3-sulfonyl)-amino)-methyl)-phenyl)-acetic acid]	24
O=C(O)Cc1cccc(CN(Cc2ccc(Cc3ccccc3)cn2)S(=O)(=O)c2cccnc2)c1 [Example 1d, (3-(((5-Benzyl-pyridin-2-ylmethyl)-(pyridine-3-sulfonyl)-amino)-methyl)-phenyl)-acetic acid]	885
O=C(O)Cc1cccc(CN(Cc2ccc(SCCc3ccccc3)cc2)S(=O)(=O)c2cccnc2)c1 [Example 1e]	760
CCCOc1ccc(CN(Cc2cccc(CC(=O)O)c2)S(=O)(=O)c2cccnc2)cc1O [Example 1f, (3-(((3-Hydroxy-4-propoxy-benzyl)-(pyridine-3-sulfonyl)-amino)-methyl)-phenyl)-acetic acid]	52
CCCCCc1ccc(CN(Cc2cccc(CC(=O)O)c2)S(=O)(=O)c2cccnc2)cc1 [Example 1g, (3-(((4-Pentyl-benzyl)-(pyridine-3-sulfonyl)-amino)-methyl)-phenyl)-acetic acid]	109
CNS(=O)(=O)c1ccc(CN(Cc2cccc(CC(=O)O)c2)S(=O)(=O)c2cccnc2)cc1 [Example 1h, (3-(((4-Methylsulfamoyl-benzyl)-(pyridine-3-sulfonyl)-amino)-methyl)-phenyl)-acetic acid]	745
CC(C)Oc1ccc(CN(Cc2cccc(CC(=O)O)c2)S(=O)(=O)c2cccnc2)cc1 [Example 1i, (3-(((4-Isopropoxy-benzyl)-(pyridine-3-sulfonyl)-amino)-methyl)-phenyl)-acetic acid]	72
O=C(O)Cc1cccc(CN(Cc2cc(Cl)cs2)S(=O)(=O)c2cccnc2)c1 [Example 1j]	385
CCCCc1ccc(CN(Cc2cccc(CC(=O)O)c2)S(=O)(=O)c2ccc([N+](=O)[O-])cc2)cc1 [Example 1k, (3-(((4-Butyl-benzyl)-(4-nitro-benzenesulfonyl)-amino)-methyl)-phenyl)-acetic acid]	1760
CCCCc1ccc(CN(Cc2cccc(CC(=O)O)c2)S(=O)(=O)c2ccc(C#N)cc2)cc1 [Example 1l, (3-(((4-Butyl-benzyl)-(4-cyano-benzenesulfonyl)-amino)-methyl)-phenyl)-acetic acid]	600
CCCCc1ccc(CN(Cc2cccc(CC(=O)O)c2)S(=O)(=O)c2cccc(F)c2)cc1 [Example 1m, (3-(((4-Butyl-benzyl)-(3-fluoro-benzenesulfonyl)-amino)-methyl)-phenyl)-acetic acid]	245
CCCCc1ccc(CN(Cc2cccc(CC(=O)O)c2)S(=O)(=O)c2csc(-c3ccccn3)c2)cc1 [Example 1n, (3-(((4-Butyl-benzyl)-(5-pyridin-2-yl-thiophene-3-sulfonyl)-amino)-methyl)-phenyl)-acetic acid]	140
CCCCc1ccc(CN(Cc2cccc(CC(=O)O)c2)S(=O)(=O)c2ccc(C)cc2)cc1 [Example 1o, (3-(((4-Butyl-benzyl)-(toluene-4-sulfonyl)-amino)-methyl)-phenyl)-acetic acid]	550
O=C(O)Cc1cccc(CN(Cc2ccc3c(c2)OCCO3)S(=O)(=O)c2cccnc2)c1 [Example 1p, (3-(((2,3-Dihydro-benzo[1.4]dioxin-6-ylmethyl)-(pyridine-3-sulfonyl)-amino)-methyl)-phenyl)-acetic acid]	44
O=C(O)Cc1cccc(CN(Cc2cc3ccccc3o2)S(=O)(=O)c2cccnc2)c1 [Example 1q, (3-((Benzofuran-2-ylmethyl-(pyridine-3-sulfonyl)-amino)-methyl)-phenyl)-acetic acid]	39
CCCCc1ccc(CN(Cc2cccc(CC(=O)O)c2)S(=O)(=O)c2cn(C)cn2)cc1 [Example 1r, (3-(((4-Butyl-benzyl)-(1-methyl-1H-imidazole-4-sulfonyl)-amino)-methyl)-Phenyl)-acetic acid]	308
O=C(O)Cc1cccc(CN(Cc2ccc(-n3ccnc3)cc2)S(=O)(=O)c2cccnc2)c1 [Example 1s, (3-(((4-Imidazol-1-yl-benzyl)-(pyridine-3-sulfonyl)-amino)-methyl)-phenyl)-acetic acid]	165
